Reference: patent publication US8026219B2, “Antimicrobial linear peptides” (Universitat de Girona, priority 2006, dated 2011)
Residues, ends and D or L forms follow the SMILES beside them. No end group written: not given here. *: point of attachment. Bz = O=C(c1ccccc1)*

Experiments:
[1] = system: erythrocytes from fresh human blood; settings: 5% erythrocytes, 1 h at 37° C., relative to 200 μM melittin; for % Haemolysis 50 μM: 50 μM peptide; for % Haemolysis 150 μM: 150 μM peptide; for % Haemolysis 250 μM: 250 μM peptide
Experimental: A description of the methodology used to determine the haemolytic activity is found in Oren et al, Biochemistry, 2000, 39, 6103-6114, and in Raguse et al., J. Am. Chem. Soc., 2002, 124, 12774-12785.
The haemolytic activity of the peptides of the invention was evaluated by determining the release of haemoglobin which is produced on placing in contact a solution of the peptides with a suspension of erythrocytes 5% by volume, from fresh human blood.
The blood was collected aseptically using a Vactainer® K2E system (Belliver, Great Britain) with EDTA and it was stored at 4° C. for a period lower than 2 hours.
The blood was centrifuged at 6000 g for 5 minutes to separate the erythrocytes. There were washed three times with TRIS buffer (10 mM TRIS, 150 mM NaCl, pH 7.2) and they were resuspended in TRIS buffer until obtaining a suspension which contained 10% by volume of erythrocytes.
The peptides were solubilized in TRIS buffer until a final concentration of 100, 300 and 500 μM
The replicas were used for each peptide and concentration.
65 μl of 10% erythrocyte suspension was mixed with 65 μl of the peptide solution in each well of a 96-well plate (Micro-Amp®, Applied Biosystems, USA) (5% by volume of erythrocytes) and the mixture was incubated for 1 h at 37° C. under stirring. In this way, the erythrocyte suspensions were subjected to peptide concentrations of 50, 150 and 250 μM.
Next, the plates were centrifuged at 3500 g during 10 minutes and aliquots were transferred of 80 μl of supernatant to microplates with 100 wells (Bioscreen), which were diluted with 80 μl of milli-Q water.
The degree of haemolysis was determined from the absorbance at 540 nm with a Bioscreen plate reader.
The complete positive haemolysis control was determined in a TRIS buffer solution which contained 200 μM melittin (Sigma-Aldrich, Spain)
The percentage of haemolysis (H) was determined using the following equation: H=100×[Op−Ob)/(Om−Ob)]
Where OP as the optical density measured for a determined peptide concentration, Ob was the optical density of the buffer solution, and Om was the optical density for the positive control with melittin.

Proteinase K [2] = target: T1, Proteinase K (Parengyodontium album, UniProt P06873); settings: 45 minutes
T1 sequence (P06873 106-384): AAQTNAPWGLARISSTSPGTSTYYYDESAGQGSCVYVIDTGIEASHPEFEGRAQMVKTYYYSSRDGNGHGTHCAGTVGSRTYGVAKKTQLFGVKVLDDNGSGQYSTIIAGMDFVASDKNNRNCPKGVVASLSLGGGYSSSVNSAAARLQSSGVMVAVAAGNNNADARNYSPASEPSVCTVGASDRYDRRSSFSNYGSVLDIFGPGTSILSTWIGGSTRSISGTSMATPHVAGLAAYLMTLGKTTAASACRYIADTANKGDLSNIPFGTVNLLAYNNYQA
Experimental: (§2) The degradation is expressed as the percentage of peptide degraded after a determined time interval calculated from the decrease in the area of the peak of the native peptide by HPLC.
(§3) The stability of the peptides of the invention to degradation by proteases is determined by a peptide digestion test by Proteinase K (Sigma-Aldrich Corporation, Madrid, Spain).
(§4) A solution of 50 μg/ml of the peptide and 1 μg/ml of Proteinase K in 100 mM TRIS buffer at pH 7.6 was used, at ambient temperature.
(§5) The progress of the peptide excision was determined chromatographically at times between 5 and 45 minutes. To do this a reverse phase C18 column was used (Kromasil, 4.6×40 mm; 3.5 μm particle size), and linear gradients from 0.98:0.02 to 0:1 during 7 min performing the detection by absorbance in ultraviolet light at 220 nm.

[3] = system: Pseudomonas syringae EPS94; assay: Minimum inhibitory concentration (MIC), microbial growth by optical density; format: cell-based; settings: 48 h incubation at 25° C., TSB medium
Experimental: (§1) Each experiment was performed twice.

[4] = system: Erwinia amylovora PMV6076; assay: as above; format: cell-based; settings: 48 h incubation at 25° C., TSB medium
Experimental: as §1

[5] = system: Xanthomonas vesicatori 2133-2; assay: as above; settings: 48 h incubation at 25° C., TSB medium
Experimental: All the bacteria were stored at a temperature of −80° C. in Luria-Bertani (LB) medium supplemented with 20% glycerine in volume/volume.
In all cases they were resuspended in sterile water to obtain a suspension adjusted to an absorbance of 0.2 to 60 nm, which approximately corresponds to 10^8 colony forming units.
To determine the minimum inhibitory concentration (MIC), the peptides were solubilized in milli-Q sterile water until a final concentration of 1000 μM and they were filtered through a 0.22 μm pore size filter.
Dilutions of the peptides of the invention were made to obtained solutions at the concentrations of 750, 500, 250, 200, 150, 125, 100, 75, 50 and 25 μM.
20 μl of each dilution were mixed with 20 μl of the suspension of the corresponding bacterial indicator, and 160 μl of the TSB (Trypticase Soy Broth) liquid medium until a total volume of 200 μl in each well of a microplate.
Two replicas were carried out for each strain, concentration and peptide under study.
The positive controls contained water instead of peptide, and the negative controls contained the peptides without the bacterial suspension.
The microbial growth was determined automatically by optical density at 600 nm using the Microbiology Analyser Bioscreen C (Labsystems)
The microplates were incubated at 25° C. for 48 hours with stirring for 20 seconds before measuring the absorbance every hour. Each experiment was performed twice.

Proteinase K [6] = target: T1, Proteinase K; assay: in vitro; settings: Proteinase K (1 μg/ml), pH 7.6
Experimental: as §2, §3, §4, §5

With `CC[C@H](C)[C@H](NC(=O)[C@H](CCCCN)NC(=O)[C@H](CCCCN)NC(=O)[C@H](Cc1ccccc1)NC(=O)[C@H](CC(C)C)NC(=O)[C@H](CCCCN)NC(=O)[C@H](CCCCN)NC(=O)c1ccccc1)C(=O)N[C@@H](CC(C)C)C(=O)N[C@@H](CCCCN)C(=O)N[C@@H](CCCCN)C(=O)N[C@@H](CC(C)C)C(N)=O` [BP126] the “% Haemolysis 50 μM” value [1] was 2%, the “% Haemolysis 150 μM” value [1] was 14% and the “% Haemolysis 250 μM” value [1] was 24%. For the same molecule, the “stability to degradation by proteases relative to the peptide of the Comparative example” value (Proteinase K [2]) was “two times more stable”, the “range of concentrations including the MIC, P. syringae” value (from here on “range … P. syringae”) [3] was 2.5 to 5 µM and the “range of concentrations including the MIC, E. amylovora” value (from here on “range … E. amylovora”) [4] was 5 to 7.5 µM. The “range of concentrations including the MIC, X. vesicatoria” value (shortened to “range … X. vesicatoria”) [5] was 2.5 to 5 µM and the metabolised at 0.75 h, 50 μg/ml (Proteinase K [6]) was 53%.

LKLFKKILKVL-NH2 [BP033] was tested, and the “% Haemolysis 50 μM” value [1] was 4%, the “% Haemolysis 150 μM” value [1] was 38% and the “% Haemolysis 250 μM” value [1] was 68%. The “range … P. syringae” value [3] was 5 to 7.5 µM, the “range … E. amylovora” value [4] was 5 to 7.5 µM and the “range … X. vesicatoria” value [5] was >7.5 µM. For the same molecule, the metabolised at 0.75 h, 50 μg/ml (Proteinase K [6]) was 100%.

In the case of `CC[C@H](C)[C@H](NC(=O)[C@H](CCCCN)NC(=O)[C@H](CCCCN)NC(=O)[C@H](Cc1ccccc1)NC(=O)[C@H](CC(C)C)NC(=O)[C@H](CCCCN)NC(=O)[C@H](CCCCN)NC(C)=O)C(=O)N[C@@H](CC(C)C)C(=O)N[C@@H](CCCCN)C(=O)N[C@@H](Cc1ccccc1)C(=O)N[C@@H](CC(C)C)C(N)=O` [BP077], the “% Haemolysis 50 μM” value [1] is reported as 6%, the “% Haemolysis 150 μM” value [1] is reported as 40% and the “% Haemolysis 250 μM” value [1] is reported as 81%. The “range … P. syringae” value [3] was 5 to 7.5 µM, the “range … E. amylovora” value [4] was 5 to 7.5 µM and the “range … X. vesicatoria” value [5] was <2.5 µM. It also gave a metabolised at 0.75 h, 50 μg/ml (Proteinase K [6]) of 84%.

With `CC[C@H](C)[C@H](NC(=O)[C@H](CCCCN)NC(=O)[C@H](CCCCN)NC(=O)[C@H](Cc1ccccc1)NC(=O)[C@H](CC(C)C)NC(=O)[C@H](CCCCN)NC(=O)[C@@H](N)CCCCN)C(=O)N[C@@H](CC(C)C)C(=O)N[C@@H](CCCCN)C(=O)N[C@H](C(=O)N[C@@H](CC(C)C)C(N)=O)C(C)C` [BP015] the “% Haemolysis 50 μM” value [1] was 0%, the “% Haemolysis 150 μM” value [1] was 16% and the “% Haemolysis 250 μM” value [1] was 45%. For the same molecule, the “range … P. syringae” value [3] was 2.5 to 5 µM, the “range … E. amylovora” value [4] was 5 to 7.5 µM and the “range … X. vesicatoria” value [5] was >7.5 µM. For the same molecule, the metabolised at 0.75 h, 50 μg/ml (Proteinase K [6]) was 100%.

`CC[C@H](C)[C@H](NC(=O)[C@H](CCCCN)NC(=O)[C@H](CCCCN)NC(=O)[C@H](Cc1ccccc1)NC(=O)[C@H](CC(C)C)NC(=O)[C@H](CCCCN)NC(=O)[C@H](CCCCN)NS(=O)(=O)c1ccc(C)cc1)C(=O)N[C@@H](CC(C)C)C(=O)N[C@@H](CCCCN)C(=O)N[C@@H](CCCCN)C(=O)N[C@@H](CC(C)C)C(N)=O` [BP125] was tested, and the “% Haemolysis 50 μM” value [1] was 2%, the “% Haemolysis 150 μM” value [1] was 8% and the “% Haemolysis 250 μM” value [1] was 23%. The “range … P. syringae” value [3] was 2.5 to 5 µM, the “range … E. amylovora” value [4] was >7.5 µM and the “range … X. vesicatoria” value [5] was 2.5 to 5 µM. The metabolised at 0.75 h, 50 μg/ml (Proteinase K [6]) was 67%.

With WKLFKKILKFL-NH2 [BP019] the “% Haemolysis 50 μM” value [1] was 57%, the “% Haemolysis 150 μM” value [1] was 94% and the “% Haemolysis 250 μM” value [1] was 100%. For the same molecule, the “range … P. syringae” value [3] was 5 to 7.5 µM, the “range … E. amylovora” value [4] was 5 to 7.5 µM and the “range … X. vesicatoria” value [5] was 2.5 to 5 µM. The metabolised at 0.75 h, 50 μg/ml (Proteinase K [6]) was 87%.

In the case of `CC[C@H](C)[C@H](NC(=O)[C@H](CCCCN)NC(=O)[C@H](CCCCN)NC(=O)[C@H](Cc1ccccc1)NC(=O)[C@H](CC(C)C)NC(=O)[C@H](CCCCN)NC(=O)[C@@H](N)CCCCN)C(=O)N[C@@H](CC(C)C)C(=O)N[C@@H](CCCCN)C(=O)N[C@@H](Cc1ccccc1)C(=O)N[C@@H](CC(C)C)C(N)=O` [BP076], the “% Haemolysis 50 μM” value [1] is reported as 3%, the “% Haemolysis 150 μM” value [1] is reported as 34% and the “% Haemolysis 250 μM” value [1] is reported as 65%. For the same molecule, the “stability to degradation by proteases relative to the peptide of the Comparative example” value (Proteinase K [2]) was “two times more stable”, the “range … P. syringae” value [3] was 2.5 to 5 µM and the “range … E. amylovora” value [4] was 2.5 to 5 µM. The “range … X. vesicatoria” value [5] was 2.5 to 5 µM and the metabolised at 0.75 h, 50 μg/ml (Proteinase K [6]) was 49%.

`CC[C@H](C)[C@H](NC(=O)[C@H](CCCCN)NC(=O)[C@H](CCCCN)NC(=O)[C@H](Cc1ccccc1)NC(=O)[C@H](CC(C)C)NC(=O)[C@H](CCCCN)NC(=O)[C@H](Cc1c[nH]c2ccccc12)NC(=O)c1ccccc1)C(=O)N[C@@H](CC(C)C)C(=O)N[C@@H](CCCCN)C(=O)N[C@H](C(=O)N[C@@H](CC(C)C)C(N)=O)C(C)C` [BP010] (Bz-WKLFKKILKVL-NH2) was tested, and the “% Haemolysis 50 μM” value [1] was 77%, the “% Haemolysis 150 μM” value [1] was 77% and the “% Haemolysis 250 μM” value [1] was 76%. For the same molecule, the “range … P. syringae” value [3] was >7.5 µM, the “range … E. amylovora” value [4] was >7.5 µM and the “range … X. vesicatoria” value [5] was <2.5 µM. For the same molecule, the metabolised at 0.75 h, 50 μg/ml (Proteinase K [6]) was 100%.

In the case of `CC[C@H](C)[C@H](NC(=O)[C@H](CCCCN)NC(=O)[C@H](CCCCN)NC(=O)[C@H](Cc1ccccc1)NC(=O)[C@H](CC(C)C)NC(=O)[C@H](CCCCN)NC(=O)[C@@H](N)Cc1c[nH]c2ccccc12)C(=O)N[C@@H](CC(C)C)C(=O)N[C@@H](CCCCN)C(=O)N[C@@H](Cc1ccc(O)cc1)C(=O)N[C@@H](CC(C)C)C(N)=O` [BP020], the “% Haemolysis 50 μM” value [1] is reported as 78%, the “% Haemolysis 150 μM” value [1] is reported as 77% and the “% Haemolysis 250 μM” value [1] is reported as 72%. The “range … P. syringae” value [3] was 2.5 to 5 µM, the “range … E. amylovora” value [4] was 2.5 to 5 µM and the “range … X. vesicatoria” value [5] was 2.5 to 5 µM. The metabolised at 0.75 h, 50 μg/ml (Proteinase K [6]) was 85%.
